Assay results: patent US12233081B2, “Hygromycin a compounds and methods of treating spirochete diseases” (priority 2018, dated 2025)
Converted amounts (≈) assume the structure as drawn.

Legend:
Treponema pallidum = experiment: microbroth dilution MIC; assay type: cell-based
Bacteroides fragilis = experiment: microbroth dilution MIC; assay type: cell-based
Excerpt: (§1) AH MIC testing of bacteria followed the Clinical and Laboratory Standards Institute (CLSI) guidelines for antimicrobial testing of aerobic, bacteria (Methods for Dilution Antimicrobial Susceptibility Tests for Bacteria that Grow Aerobically; Approved Standard—Tenth Edition, M07-A10; Performance Standards for Antimicrobial Susceptibility Testing; Twenty-fifth Informational Supplement, M100-S25), and guidelines for antimicrobial testing of anaerobic bacteria (Methods for Antimicrobial Susceptibility Testing of Anaerobic Bacteria, 8th Edition. M11-A8). Compounds of the invention can also be tested for activity as described herein.
(§2) Briefly, the microbroth dilution MIC method was used to quantitatively measure the in vitro antibacterial activity of hygromycin A against the given bacterial isolates shown in the table below. S. aureus, E. coli and P. aeruginosa were grown in cation-adjusted Mueller-Hinton broth, anaerobes were grown in Schaedler Anaerobe Media, Borrelia species were grown in BSK-II medium. Bacteria from liquid cultures were diluted into the assay plate to achieve 5×10^5 CFU/mL. Assays plates were prepared by 2-fold dilution of compound across the plate and included a positive growth control. […] Borrelia species were incubated in a microaerophilic chamber at 34° C. for 5-7 days and scored visually for medium color change from pink to yellow of the phenol red present in the medium. The lowest concentration of antibiotics that pre vented color change was interpreted, as the MIC.

Bifidobacterium longum = experiment: microbroth dilution MIC; assay type: cell-based
Excerpt: as §1, §2

Borrelia afzelii = experiment: microbroth dilution MIC; assay type: cell-based; conditions: Borreliella afzelii
Excerpt: as §1, §2

Borrelia bavariensis = experiment: microbroth dilution MIC; assay type: cell-based; conditions: Borreliella bavariensis
Excerpt: as §1, §2

Borrelia burgdorferi = experiment: microbroth dilution MIC; assay type: cell-based; conditions: Borreliella burgdorferi
Excerpt: as §1, §2

Borrelia garinii = experiment: microbroth dilution MIC; assay type: cell-based; conditions: Borreliella garinii
Excerpt: as §1, §2

Borrelia turcica = experiment: microbroth dilution MIC; assay type: cell-based
Excerpt: as §1, §2

E. coli = experiment: microbroth dilution MIC; assay type: cell-based; conditions: Escherichia coli
Excerpt: as §1, §2

Enterococcus faecalis = experiment: microbroth dilution MIC; assay type: cell-based
Excerpt: as §1, §2

Lactobacillus reuteri = experiment: microbroth dilution MIC; assay type: cell-based; conditions: Limosilactobacillus reuteri
Excerpt: as §1, §2

P. aeruginosa = experiment: microbroth dilution MIC; assay type: cell-based; conditions: Pseudomonas aeruginosa
Excerpt: as §1, §2

S. aureus = experiment: microbroth dilution MIC; assay type: cell-based; conditions: Staphylococcus aureus
Excerpt: as §1, §2

gut microbiome = gut microbiome 16S rRNA sequencing of stool of infected, treated mice; conditions: for Bacteroidaceae change in percent relative abundance / Streptococcaceae change in percent relative abundance: 50 mg/kg
[1] = IP 50 mg/kg every 12 hours for 5 days
[2] = oral 50 mg/kg every 12 hours for 5 days
[3] = oral 50 mg/kg every 12 hours for 5 days, listed as Hyg

CC(=O)[C@H]1O[C@@H](Oc2ccc(/C=C(\C)C(=O)N[C@@H]3[C@H](O)[C@@H](O)[C@H]4OCO[C@H]4[C@@H]3O)cc2O)[C@@H](O)[C@@H]1O [Hygromycin A]
MIC (Treponema pallidum): 0.03 µg/mL (≈ 0.0587 µM) | MIC (Bacteroides fragilis): 128 µg/mL (≈ 250 µM) | MIC (Bifidobacterium longum): 8 µg/mL (≈ 15.6 µM) | MIC (Borrelia afzelii): 0.25 µg/mL (≈ 0.489 µM) | MIC (Borrelia bavariensis): 0.25 µg/mL (≈ 0.489 µM) | MIC (Borrelia burgdorferi): 0.12 µg/mL (≈ 0.235 µM) | MIC (Borrelia garinii): 0.25 µg/mL (≈ 0.489 µM) | MIC (Borrelia turcica): 0.25 µg/mL (≈ 0.489 µM) | MIC (E. coli): 1000 µg/mL (≈ 1960 µM) | MIC (Enterococcus faecalis): 128 µg/mL (≈ 250 µM) | MIC (Lactobacillus reuteri): 32 µg/mL (≈ 62.6 µM) | MIC (P. aeruginosa): > 1000 µg/mL | MIC (S. aureus): 32 µg/mL (≈ 62.6 µM) | Brucellaceae change in percent relative abundance (gut microbiome; [1]): 0.000% | Francisellaceae change in percent relative abundance (gut microbiome; [1]): −0.001% | Aerococcaceae change in percent relative abundance (gut microbiome; [2]): 0.000% | Anaerolineaceae change in percent relative abundance (gut microbiome; [2]): 0.000% | Anaeroplasmataceae change in percent relative abundance (gut microbiome; [2]): −0.016% | Anaplasmataceae change in percent relative abundance (gut microbiome; [2]): 0.000% | Aspergillaceae change in percent relative abundance (gut microbiome; [2]): 0.000% | Asteraceae change in percent relative abundance (gut microbiome; [2]): 0.000% | Bacillaceae change in percent relative abundance (gut microbiome; [2]): −0.009% | Bacillales change in percent relative abundance (gut microbiome; [2]): −0.092% | Bifidobacteriaceae change in percent relative abundance (gut microbiome; [2]): 0.013% | Brucellaceae change in percent relative abundance (gut microbiome; [2]): 0.000% | Camobacteriaceae change in percent relative abundance (gut microbiome; [2]): 0.005% | Chitinophagaceae change in percent relative abundance (gut microbiome; [2]): 0.000% | Christensenellaceae change in percent relative abundance (gut microbiome; [2]): 0.000% | Clostridiaceae change in percent relative abundance (gut microbiome; [2]): −5.257% | Clostridiales change in percent relative abundance (gut microbiome; [2]): −0.174% | Clostridiales family xi. incertae sedis change in percent relative abundance (gut microbiome; [2]): −0.032% | Clostridiales family xiii. incertae sedis change in percent relative abundance (gut microbiome; [2]): −0.007% | Coriobacteriaceae change in percent relative abundance (gut microbiome; [2]): −0.038% | Corynebacteriaceae change in percent relative abundance (gut microbiome; [2]): 0.000% | Cytophagaceae change in percent relative abundance (gut microbiome; [2]): −0.001% | Deferribacteraceae change in percent relative abundance (gut microbiome; [2]): −1.462% | Defluviitaleaceae change in percent relative abundance (gut microbiome; [2]): −0.002% | Desulfobacteraceae change in percent relative abundance (gut microbiome; [2]): −0.001% | Enterobacteriaceae change in percent relative abundance (gut microbiome; [2]): −0.026% | Enterococcaceae change in percent relative abundance (gut microbiome; [2]): 6.546% | Erysipelotrichaceae change in percent relative abundance (gut microbiome; [2]): 1.506% | Eubacteriaceae change in percent relative abundance (gut microbiome; [2]): −6.405% | Fabaceae change in percent relative abundance (gut microbiome; [2]): 0.000% | Flavobacteriaceae change in percent relative abundance (gut microbiome; [2]): −0.001% | Francisellaceae change in percent relative abundance (gut microbiome; [2]): 0.000% | Fusobacteriaceae change in percent relative abundance (gut microbiome; [2]): 0.000% | Gammaproteobacteria change in percent relative abundance (gut microbiome; [2]): −0.025% | Gloeobacteraceae change in percent relative abundance (gut microbiome; [2]): −0.013% | Gracilibacteraceae change in percent relative abundance (gut microbiome; [2]): −0.072% | Halomonadaceae change in percent relative abundance (gut microbiome; [2]): 0.000% | Hylidae change in percent relative abundance (gut microbiome; [2]): 0.000% | Kopriimonadaceae change in percent relative abundance (gut microbiome; [2]): 0.000% | Lachnospiraceae change in percent relative abundance (gut microbiome; [2]): −8.372% | Lactobacillaceae change in percent relative abundance (gut microbiome; [2]): 22.074% | Leuconostocaceae change in percent relative abundance (gut microbiome; [2]): 0.000% | Methylobacteriaceae change in percent relative abundance (gut microbiome; [2]): 0.000% | Microbacteriaceae change in percent relative abundance (gut microbiome; [2]): 0.000% | Mucoraceae change in percent relative abundance (gut microbiome; [2]): 0.000% | Nostocaceae change in percent relative abundance (gut microbiome; [2]): 0.000% | Onagraceae change in percent relative abundance (gut microbiome; [2]): 0.000% | Oscillatoriales change in percent relative abundance (gut microbiome; [2]): 0.001% | Oscillospiraceae change in percent relative abundance (gut microbiome; [2]): −0.009% | Paenibacillaceae change in percent relative abundance (gut microbiome; [2]): −0.002% | Pasteurellaceae change in percent relative abundance (gut microbiome; [2]): 0.000% | Pelobacteraceae change in percent relative abundance (gut microbiome; [2]): 0.000% | Peptococcaceae change in percent relative abundance (gut microbiome; [2]): −0.835% | Peptoniphilaceae change in percent relative abundance (gut microbiome; [2]): 0.000% | Peptostreptococcaceae change in percent relative abundance (gut microbiome; [2]): −0.095% | Physalacriaceae change in percent relative abundance (gut microbiome; [2]): 0.000% | Poaceae change in percent relative abundance (gut microbiome; [2]): 0.007% | Polyangiaceae change in percent relative abundance (gut microbiome; [2]): 0.000% | Porphyromonadaceae change in percent relative abundance (gut microbiome; [2]): −23.435% | Prevotellaceae change in percent relative abundance (gut microbiome; [2]): −0.285% | Pseudomonadaceae change in percent relative abundance (gut microbiome; [2]): 0.000% | Rhizobiaceae change in percent relative abundance (gut microbiome; [2]): 0.000% | Rhodobacteraceae change in percent relative abundance (gut microbiome; [2]): 0.000% | Rikenellaceae change in percent relative abundance (gut microbiome; [2]): −4.391% | Ruminococcaceae change in percent relative abundance (gut microbiome; [2]): −1.494% | Sphingomonadaceae change in percent relative abundance (gut microbiome; [2]): 0.000% | Spirochaetaceae change in percent relative abundance (gut microbiome; [2]): −0.086% | Spiroplasmataceae change in percent relative abundance (gut microbiome; [2]): −0.093% | Staphylococcaceae change in percent relative abundance (gut microbiome; [2]): 0.001% | Thermoanaerobacteraceae change in percent relative abundance (gut microbiome; [2]): −0.010% | Veillonellaceae change in percent relative abundance (gut microbiome; [2]): 0.002% | Verrucomicrobiaceae change in percent relative abundance (gut microbiome; [2]): −0.017% | Xanthomonadaceae change in percent relative abundance (gut microbiome; [2]): 0.000% | increases in Enterococcaceae or Enterobacteriaceae (gut microbiome; [2]): did not lead to increases | mice that maintained Bacteroidaceae (gut microbiome; [2]): 1/5 | mice with decreased Bacteroidaceae (gut microbiome; [2]): 3/5 | mice with increased Bacteroidaceae (gut microbiome; [2]): 1/5 | Bacteroidaceae change in percent relative abundance (gut microbiome; [2]): −8.5% | Streptococcaceae change in percent relative abundance (gut microbiome; [2]): 31.09% | Bacteroidaceae change in percent relative abundance (gut microbiome; [3]): −8.462% | Streptococcaceae change in percent relative abundance (gut microbiome; [3]): 31.098%
